What all share (format): in vivo, human
Series [1] is described as follows: Randomized controlled bioavailability study in healthy women, three way cross over (Example 2). From the text:
Three Way Cross Over Design.
Bioavailability; Tmax, Cmax and AUC0-t between each treatment.

The nature of series [2]: Another study with different doses of R5P (5, 10 or 20 mg) in healthy women. The conditions noted are these: 8 healthy women, controls not administered with R5P. As to the method:
In another study, different doses of R5P were tested: 5, 10 or 20 mg of R5P (i.e. equivalent to the formulations administered to Treatment group C above, with the exception that 5, 10 or 20 mg of R5P was used rather than 40 mg R5P; 8 healthy women for each dose), and the PLP levels were compared to those measured in control healthy women not administered with R5P (24 subjects, equivalent to Treatment group A above).

Series [3] concerns pregnant women suffering from nausea and vomiting of pregnancy. Description: Randomized controlled efficacy trial of Diclectin vs. placebo in pregnant women: plasma levels vs PUQE score. As to conditions: pregnant women treated with Diclectin for 14 days. On the procedure: A randomized controlled efficacy trial of Diclectin® vs. placebo in pregnant women was carried out as follows, with the results shown in FIG. 1.
To assess the plasma levels of Doxylamine and PLP and the severity of nausea and vomiting of pregnancy symptoms in pregnant women treated with Diclectin®.
The demographic and medical characteristics of the subjects are as described in Koren et al., Am J Obstet Gynecol 2010; 203(6):571.e1-7.
The study design is as described in Koren et al., 2010, supra. Briefly, a randomized, double-blind, multicenter placebo controlled trial studying pregnant women suffering from nausea and vomiting of pregnancy, analyzed by intention to treat. Women received Diclectin (n=131) or placebo (n=125) for 14 days. Nausea and vomiting of pregnancy symptoms were evaluated daily using the pregnancy unique quantification of emesis scale (PUQE-24, Ebrahimi et al., J Obstet Gynaecol Can. 2009 September; 31(9):803-7).

[4] abbreviates: co-administration of 40 mg of R5P.

Turning to `Cc1cc2nc3c(=O)[nH]c(=O)nc-3n(C[C@H](O)[C@H](O)[C@H](O)COP(=O)(O)O)c2cc1C` [R5P, riboflavin-5-phosphate], in series [1] (administration of R5P), the “general improvement in the pharmacokinetic profile of PLP” value was “less inter-subject variations and decreased time to reach steady-state PLP levels”. Further, in series [1] (setting [4]), the “PLP levels at 12h” value is given as “does not significantly affect” and the “increase in the plasma level of PLP (AUC 0-2 h) following administration of Pyridoxine” value is listed as “faster increase in the plasma level of PLP”. The “PLP concentration (using AUC) over the period 0-12 h” value in series [1] (plasma, healthy women, fasted, compared with Diclectin (PA_DR), one-way ANOVA P>0.05) was “did not increase PLP levels significantly”. Also, the “effect on PLP levels relative to controls” value in series [2] (5 mg of R5P) is reported as “no significant effect”. Further, the “effect on PLP levels relative to controls” value in series [2] (10 mg of R5P) is “no significant effect”. For the same compound, the “effect on pharmacokinetics of PLP relative to controls” value in series [2] (20 mg of R5P) is listed as “some improvement in the pharmacokinetics of PLP”.
On to `CN(C)CCOC(C)(c1ccccc1)c1ccccn1` (stereo not drawn) [Doxylamine, reference compound], for which, in series [3], the “relation of average plasma concentration to severity of NVP (PUQE score)” value is “correlates with a decrease in the severity of the NVP”.
In the case of `Cc1ncc(COP(=O)(O)O)c(C=O)c1O` [PLP, Pyridoxal 5-phosphate], the “relation of average plasma concentration to severity of NVP (PUQE score)” value in series [3] is “correlates with a decrease in the severity of the NVP”.

These data come from patent publication US9439920B2, “Composition for the management of nausea and vomiting” (Duchesnay Inc., priority 2013, dated 2016).
